# From PubChem BioAssay (NCI)
#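 All cell lines were grown in 96-well plates and treated with compound for 48 hours. GI50 = concentration required for 50% inhibition of growth. The concentration for full growth arrest is given as TGI.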
# Assays:
# Test in all cases: inhibition of tumour cell growth, NCI panel, 48 h
# HT29 colon = test system: HT29 colon
# HOP-62 NSCLC = test system: HOP-62 NSCLC
# A498 renal = test system: A498 renal
# TK-10 renal = test system: TK-10 renal
# CAKI-1 renal = test system: CAKI-1 renal
# MDA-MB-231 breast = test system: MDA-MB-231 breast
# NCI-H226 lung = test system: NCI-H226 lung
# UO-31 renal = test system: UO-31 renal
# NCI-H460 lung = test system: NCI-H460 lung
# MALME-3M melanoma = test system: MALME-3M melanoma
# RPMI-8226 leukemia = test system: RPMI-8226 leukemia
# OVCAR-8 ovarian = test system: OVCAR-8 ovarian
# IGROV1 ovarian = test system: IGROV1 ovarian
# NCI-H522 lung = test system: NCI-H522 lung
# UACC-62 melanoma = test system: UACC-62 melanoma
# MDA-MB-435 = test system: MDA-MB-435
# LOX IMVI melanoma = test system: LOX IMVI melanoma
# HOP-92 NSCLC = test system: HOP-92 NSCLC
# NCI-H23 lung = test system: NCI-H23 lung
# HL-60(TB) leukemia = test system: HL-60(TB) leukemia
# PC-3 prostate = test system: PC-3 prostate
# EKVX NSCLC = test system: EKVX NSCLC
# HCT-116 colon = test system: HCT-116 colon
# KM12 colon = test system: KM12 colon
# OVCAR-5 ovarian = test system: OVCAR-5 ovarian
# SW-620 colon = test system: SW-620 colon
# M14 melanoma = test system: M14 melanoma
# NCI/ADR-RES ovarian = test system: NCI/ADR-RES ovarian
# K-562 leukemia = test system: K-562 leukemia
# BT-549 breast = test system: BT-549 breast
# DU-145 prostate = test system: DU-145 prostate
# OVCAR-4 ovarian = test system: OVCAR-4 ovarian
# HCC-2998 colon = test system: HCC-2998 colon
# SF-268 CNS = test system: SF-268 CNS
# ACHN renal = test system: ACHN renal
# SK-OV-3 ovarian = test system: SK-OV-3 ovarian
# SF-295 CNS = test system: SF-295 CNS
# 786-0 renal = test system: 786-0 renal
# RXF 393 renal = test system: RXF 393 renal
# SF-539 CNS = test system: SF-539 CNS
# A549 NSCLC = test system: A549 NSCLC
# U251 CNS = test system: U251 CNS
# SNB-19 CNS = test system: SNB-19 CNS
# HCT-15 colon = test system: HCT-15 colon
# SK-MEL-2 melanoma = test system: SK-MEL-2 melanoma
# SNB-75 CNS = test system: SNB-75 CNS
# SN12C renal = test system: SN12C renal
# SK-MEL-28 melanoma = test system: SK-MEL-28 melanoma
# HS 578T breast = test system: HS 578T breast
compound,measurement,setting,value
Fc1cccc(Cl)c1/C=N/Nc1nc(N/N=C/c2c(F)cccc2Cl)nc(N2CCCCC2)n1,GI50,HT29 colon,2.9 µM
same,TGI,HT29 colon,> 100 µM
same,GI50,HOP-62 NSCLC,2.85 µM
same,TGI,HOP-62 NSCLC,12 µM
same,GI50,A498 renal,2.4 µM
same,TGI,A498 renal,13.2 µM
same,GI50,TK-10 renal,3.73 µM
same,TGI,TK-10 renal,9.11 µM
same,GI50,CAKI-1 renal,3.01 µM
same,TGI,CAKI-1 renal,15.5 µM
same,GI50,MDA-MB-231 breast,7.65 µM
same,TGI,MDA-MB-231 breast,24.4 µM
same,GI50,NCI-H226 lung,6.48 µM
same,TGI,NCI-H226 lung,> 100 µM
same,GI50,UO-31 renal,2.01 µM
same,TGI,UO-31 renal,> 100 µM
same,GI50,NCI-H460 lung,3.14 µM
same,TGI,NCI-H460 lung,> 100 µM
same,GI50,MALME-3M melanoma,2.21 µM
same,TGI,MALME-3M melanoma,6.26 µM
same,GI50,RPMI-8226 leukemia,2.26 µM
same,TGI,RPMI-8226 leukemia,> 100 µM
same,GI50,OVCAR-8 ovarian,3.89 µM
same,TGI,OVCAR-8 ovarian,> 100 µM
same,GI50,IGROV1 ovarian,3.16 µM
same,TGI,IGROV1 ovarian,> 100 µM
same,GI50,NCI-H522 lung,2.57 µM
same,TGI,NCI-H522 lung,9.68 µM
same,GI50,UACC-62 melanoma,2.35 µM
same,TGI,UACC-62 melanoma,9.5 µM
same,GI50,MDA-MB-435,2.86 µM
same,TGI,MDA-MB-435,> 100 µM
same,GI50,LOX IMVI melanoma,3.77 µM
same,TGI,LOX IMVI melanoma,> 100 µM
same,GI50,HOP-92 NSCLC,1.47 µM
same,TGI,HOP-92 NSCLC,5.36 µM
same,GI50,NCI-H23 lung,3.42 µM
same,TGI,NCI-H23 lung,16.8 µM
same,GI50,HL-60(TB) leukemia,2 µM
same,TGI,HL-60(TB) leukemia,> 100 µM
same,GI50,PC-3 prostate,2.06 µM
same,TGI,PC-3 prostate,> 100 µM
same,GI50,EKVX NSCLC,1.54 µM
same,TGI,EKVX NSCLC,> 100 µM
same,GI50,HCT-116 colon,2.83 µM
same,TGI,HCT-116 colon,11.9 µM
same,GI50,KM12 colon,2.93 µM
same,TGI,KM12 colon,> 100 µM
same,GI50,OVCAR-5 ovarian,3.8 µM
same,TGI,OVCAR-5 ovarian,> 100 µM
same,GI50,SW-620 colon,3.51 µM
same,TGI,SW-620 colon,> 100 µM
same,GI50,M14 melanoma,2.4 µM
same,TGI,M14 melanoma,9 µM
same,GI50,NCI/ADR-RES ovarian,2.76 µM
same,TGI,NCI/ADR-RES ovarian,> 100 µM
same,GI50,K-562 leukemia,3.08 µM
same,TGI,K-562 leukemia,> 100 µM
same,GI50,BT-549 breast,4.45 µM
same,TGI,BT-549 breast,20.9 µM
same,GI50,DU-145 prostate,11.7 µM
same,TGI,DU-145 prostate,> 100 µM
same,GI50,OVCAR-4 ovarian,2.58 µM
same,TGI,OVCAR-4 ovarian,> 100 µM
same,GI50,HCC-2998 colon,3.68 µM
same,TGI,HCC-2998 colon,> 100 µM
same,GI50,SF-268 CNS,4.22 µM
same,TGI,SF-268 CNS,52.9 µM
same,GI50,ACHN renal,3.04 µM
same,TGI,ACHN renal,12.8 µM
same,GI50,SK-OV-3 ovarian,3.65 µM
same,TGI,SK-OV-3 ovarian,15.4 µM
same,GI50,SF-295 CNS,1.01 µM
same,TGI,SF-295 CNS,10.7 µM
same,GI50,786-0 renal,3.44 µM
same,TGI,786-0 renal,14.7 µM
same,GI50,RXF 393 renal,2.65 µM
same,TGI,RXF 393 renal,11.5 µM
same,GI50,SF-539 CNS,7.65 µM
same,TGI,SF-539 CNS,24.3 µM
same,GI50,A549 NSCLC,3.04 µM
same,TGI,A549 NSCLC,> 100 µM
same,GI50,U251 CNS,3.56 µM
same,TGI,U251 CNS,22.5 µM
same,GI50,SNB-19 CNS,3.25 µM
same,TGI,SNB-19 CNS,18 µM
same,GI50,HCT-15 colon,2.82 µM
same,TGI,HCT-15 colon,> 100 µM
same,GI50,SK-MEL-2 melanoma,1.69 µM
same,TGI,SK-MEL-2 melanoma,3.91 µM
same,GI50,SNB-75 CNS,2.36 µM
same,TGI,SNB-75 CNS,10.5 µM
same,GI50,SN12C renal,2.85 µM
same,TGI,SN12C renal,> 100 µM
same,GI50,SK-MEL-28 melanoma,3.41 µM
same,TGI,SK-MEL-28 melanoma,> 100 µM
same,GI50,HS 578T breast,2.44 µM
same,TGI,HS 578T breast,15.4 µM
